Experimental data as given in US8178552B2, “7-Azaindole derivatives and their use in the inhibition of c-Jun N-terminal kinase” (Eisai R&D Management Co., Ltd., priority 2008, dated 2012).

Target: JNK3 (Homo sapiens, UniProt P53779)
Test: JNK3 SPA assay
Type: biochemical
Conditions: 3.33 μM ATP, GST-c-Jun substrate; read-out: IC50 against JNK3
Experimental: JNK1, JNK2, JNK3—SPA Assay
JNK1, JNK2, JNK3—SPA Assay • 1. Compound is dissolved in DMSO to a convenient concentration and this is diluted in 10% DMSO to a five times concentrate of the desired starting concentration (frequently 1:100). • 2. 10 μl of 500 mM EDTA is added to alternative wells of the Opti-plate row, which will receive kinase reaction plus DMSO. This creates the negative control. • 3. For the JNK2 and JNK3 assay, compounds are prepared in six 2-fold dilutions with water and each concentration is tested in duplicate. For the JNK1 assay compounds are prepared in four 5-fold dilutions with water which are tested in triplicate. Controls are treated identically. • 4. 20 μl per well of each compound concentration is transferred to an Opti-plate, in duplicate. • 5. 30 μl (JNK2/3 SPA) or 50 μl (JNK1 SPA) of substrate solution (25 mM HEPES pH 7.5, 10 mM magnesium acetate with 3.33 μM ATP (JNK2/3) or 2 μM ATP (JNK1), approximately 7.5 kBq [γ-^33P] ATP, GST-c-Jun, in water) is added to each well. • 6. 50 μl (JNK2/3 SPA) or 30 μl (JNK1 SPA) of kinase solution (JNK in 25 mM HEPES pH 7.5, 10 mM Mg Acetate) is added to each well.
• 7. The plate is incubated for 30 minutes at room temperature. • 8. 100 μl of bead/stop solution is added to each well (5 mg/ml glutathione-PVT-SPA beads, 40 mM ATP in PBS). • 9. Plates are sealed and incubated for 30 minutes at room temperature, centrifuged for 10 minutes at 2500 g and counted. • 10. The IC50 values are calculated as the concentration of the compound being tested at which the phosphorylation of c-Jun is decreased to 50% of the control value.

Sequence of JNK3 (P53779 whole entry, species assumed): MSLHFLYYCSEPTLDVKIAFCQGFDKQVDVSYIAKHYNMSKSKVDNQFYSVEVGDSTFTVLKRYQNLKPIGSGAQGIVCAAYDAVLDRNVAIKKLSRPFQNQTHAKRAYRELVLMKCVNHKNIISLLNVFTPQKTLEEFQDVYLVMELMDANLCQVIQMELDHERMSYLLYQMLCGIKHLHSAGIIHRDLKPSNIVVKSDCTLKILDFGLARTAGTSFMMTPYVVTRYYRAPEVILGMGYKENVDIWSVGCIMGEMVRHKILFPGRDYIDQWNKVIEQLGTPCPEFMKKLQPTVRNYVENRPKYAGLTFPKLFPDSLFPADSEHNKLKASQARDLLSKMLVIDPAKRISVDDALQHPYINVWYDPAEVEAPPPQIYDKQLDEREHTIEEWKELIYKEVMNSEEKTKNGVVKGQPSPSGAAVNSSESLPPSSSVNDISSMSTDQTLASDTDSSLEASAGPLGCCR

Structure (SMILES) | IC50 [nM]
CCC1CC=C(c2cnc3[nH]cc(-c4cnn(C)c4)c3c2)CC1 (stereo not drawn) [Compound I-8, 5-(4-ethylcyclohex-1-enyl)-3-(1-methyl-1H-pyrazol-4-yl)-1H-pyrrolo[2,3-b]pyridine] | 16
Cn1cc(-c2c[nH]c3ncc([C@H]4CC[C@@H](N5CC[C@H](F)C5)CC4)cc23)cn1 [Compound I-49, 5-((1R,4s)-4-((S)-3-fluoropyrrolidin-1-yl)cyclohexyl)-3-(1-methyl-1H-pyrazol-4-yl)-1H-pyrrolo[2,3-b]pyridine] | 316
Cn1cc(-c2c[nH]c3ncc(C4=CC(C)(C)CC(C)(C)C4)cc23)cn1 [Compound I-28, 3-(1-methyl-1H-pyrazol-4-yl)-5-(3,3,5,5-tetramethylcyclohex-1-enyl)-1H-pyrrolo[2,3-b]pyridine] | 5500
Cn1cc(-c2c[nH]c3ncc(C4=CCCCC4)cc23)cn1 [Compound I-12, 5-cyclohexenyl-3-(1-methyl-1H-pyrazol-4-yl)-1H-pyrrolo[2,3-b]pyridine] | 110
CCN(CC)C1CCC(c2cnc3[nH]cc(-c4cnn(C)c4)c3c2)CC1 (stereo not drawn) [Compound I-52, N,N-diethyl-4-(3-(1-methyl-1H-pyrazol-4-yl)-1H-pyrrolo[2,3-b]pyridin-5-yl)cyclohexanamine] | 251
Cn1cc(-c2c[nH]c3ncc(C4=CCC(c5ccccc5)CC4)cc23)cn1 (stereo not drawn) [Compound I-27, 3-(1-methyl-1H-pyrazol-4-yl)-5-(4-phenylcyclohex-1-enyl)-1H-pyrrolo[2,3-b]pyridine] | 155

Results, then the compound that gave them:

IC50 [nM] | Structure (SMILES)
158 | c1nn(CCN2CCOCC2)cc1-c1c[nH]c2ncc(C3CCCC3)cc12 [Compound I-64, 5-Cyclopentyl-3-[1-(2-morpholin-4-yl-ethyl)-1H-pyrazol-4-yl]-1H-pyrrolo[2,3-b]pyridine]
1410 | Cn1cc(-c2c[nH]c3ncc(C4=C[C@H]5O[C@@H]4CC5C(N)=O)cc23)cn1 (mixture of isomers) [Compound I-156, (1R,4R)-5-(3-(1-methyl-1H-pyrazol-4-yl)-1H-pyrrolo[2,3-b]pyridin-5-yl)-7-oxabicyclo[2.2.1]hept-5-ene-2-carboxamide]
692 | Cn1cc(-c2c[nH]c3ncc([C@H]4CC[C@@H](NCCO)CC4)cc23)cn1 [Compound I-130, 2-((1s,4s)-4-(3-(1-methyl-1H-pyrazol-4-yl)-1H-pyrrolo[2,3-b]pyridin-5-yl)cyclohexylamino)ethanol]
263 | COCCN[C@H]1CC[C@H](c2cnc3[nH]cc(-c4cnn(C)c4)c3c2)CC1 [Compound I-111, (1r,4r)-N-(2-methoxyethyl)-4-(3-(1-methyl-1H-pyrazol-4-yl)-1H-pyrrolo[2,3-b]pyridin-5-yl)cyclohexanamine]
309 | CCCN(C)[C@H]1CC[C@@H](c2cnc3[nH]cc(-c4cnn(C)c4)c3c2)CC1 [Compound I-116, (1s,4s)-N-methyl-4-(3-(1-methyl-1H-pyrazol-4-yl)-1H-pyrrolo[2,3-b]pyridin-5-yl)-N-propylcyclohexanamine]
138 | C[C@H]1COCCN1[C@H]1CC[C@@H](c2cnc3[nH]cc(-c4cnn(C)c4)c3c2)CC1 [Compound I-104, (S)-3-methyl-4-((1s,4R)-4-(3-(1-methyl-1H-pyrazol-4-yl)-1H-pyrrolo[2,3-b]pyridin-5-yl)cyclohexyl)morpholine]
63 | Cn1cc(-c2c[nH]c3ncc([C@H]4CC[C@H](CO)CC4)cc23)cn1 [Compound I-74, ((1r,4r)-4-(3-(1-methyl-1H-pyrazol-4-yl)-1H-pyrrolo[2,3-b]pyridin-5-yl)cyclohexyl)methanol]
288 | c1n[nH]cc1-c1c[nH]c2ncc([C@H]3CC[C@@H](N4CCOCC4)CC3)cc12 [Compound I-78, 4-((1s,4s)-4-(3-(1H-pyrazol-4-yl)-1H-pyrrolo[2,3-b]pyridin-5-yl)cyclohexyl)morpholine]
323 | CCN(CCOC)[C@H]1CC[C@H](c2cnc3[nH]cc(-c4cnn(C)c4)c3c2)CC1 [Compound I-123, (1r,4r)-N-ethyl-N-(2-methoxyethyl)-4-(3-(1-methyl-1H-pyrazol-4-yl)-1H-pyrrolo[2,3-b]pyridin-5-yl)cyclohexanamine]
